The NIST ThermoML archive (doi:10.1016/j.jct.2017.03.026)
Several values for one entry are separate records, joined by “and”; a condition that tells them apart may be missing. Equal entries are not always repeated.

Test: molar heat capacity at constant pressure
Settings: 101.33 kPa, Crystal, Small (less than 1 g) adiabatic calorimetry

O.O.O.O.O.O=S(=O)([O-])[O-].[Cu+2] [copper(II) sulfate pentahydrate]
Settings | molar heat capacity at constant pressure
233.45 K | 239.84 J/K/mol
234.05 K | 245.57 J/K/mol
234.17 K | 240.04 J/K/mol
234.4 K | 246.29 J/K/mol
234.6 K | 245.97 J/K/mol
234.74 K | 245.84 J/K/mol
235.43 K | 246.76 J/K/mol
235.54 K | 247.78 J/K/mol
235.9 K | 247.43 J/K/mol
236.03 K | 249.81 J/K/mol
236.12 K | 248.09 J/K/mol
236.33 K | 241.79 J/K/mol
236.34 K | 242 J/K/mol
236.67 K | 248.93 J/K/mol
236.8 K | 248.39 J/K/mol
237.18 K | 249.45 J/K/mol
237.49 K | 248.39 J/K/mol
237.8 K | 249.96 J/K/mol
238.17 K | 249.66 J/K/mol
238.48 K | 250.93 J/K/mol
238.49 K | 242.57 J/K/mol
238.86 K | 250.68 J/K/mol
238.93 K | 250.66 J/K/mol
239.22 K | 244.58 J/K/mol
239.28 K | 253.63 J/K/mol
239.54 K | 251.41 J/K/mol
239.78 K | 251.78 J/K/mol
240 K | 244.6 J/K/mol
240.05 K | 252.46 J/K/mol
240.22 K | 252.08 J/K/mol
240.64 K | 245.25 J/K/mol
240.9 K | 252.78 J/K/mol
241.06 K | 253.96 J/K/mol
241.18 K | 254.16 J/K/mol
241.62 K | 254.68 J/K/mol
242.1 K | 246.15 J/K/mol
242.31 K | 255.3 J/K/mol and 255.28 J/K/mol
242.34 K | 255.3 J/K/mol
242.5 K | 257.5 J/K/mol
242.81 K | 246.88 J/K/mol
243 K | 255.25 J/K/mol
243.44 K | 256.35 J/K/mol
243.63 K | 256.1 J/K/mol
243.67 K | 255.75 J/K/mol
244.35 K | 256.2 J/K/mol
244.56 K | 257.83 J/K/mol
244.9 K | 258.25 J/K/mol
244.96 K | 248.55 J/K/mol
244.99 K | 248.48 J/K/mol
245.02 K | 258.05 J/K/mol
245.68 K | 259.42 J/K/mol
245.7 K | 261.47 J/K/mol and 258.65 J/K/mol
246.21 K | 260.25 J/K/mol
246.37 K | 259.35 J/K/mol
246.81 K | 261 J/K/mol
247.04 K | 259.87 J/K/mol
247.17 K | 250.06 J/K/mol
247.49 K | 261.87 J/K/mol
247.71 K | 260.55 J/K/mol
247.81 K | 250.77 J/K/mol
247.93 K | 262.47 J/K/mol
248.38 K | 262.79 J/K/mol
248.76 K | 263.79 J/K/mol
248.87 K | 265.57 J/K/mol
249.05 K | 263.94 J/K/mol and 263.89 J/K/mol
249.35 K | 251.83 J/K/mol
249.73 K | 264.77 J/K/mol
250 K | 252.3 J/K/mol
250.03 K | 265.72 J/K/mol
250.16 K | 265.92 J/K/mol
250.4 K | 265.12 J/K/mol
250.65 K | 253.29 J/K/mol
250.81 K | 264.67 J/K/mol
251.06 K | 267.06 J/K/mol
251.11 K | 266.37 J/K/mol
251.28 K | 267.34 J/K/mol
251.4 K | 267.19 J/K/mol
251.54 K | 253.61 J/K/mol
251.7 K | 267.09 J/K/mol
251.73 K | 268.24 J/K/mol
252 K | 268.41 J/K/mol
252.02 K | 268.79 J/K/mol
252.3 K | 268.34 J/K/mol
252.43 K | 268.74 J/K/mol
252.44 K | 269.16 J/K/mol
252.6 K | 268.74 J/K/mol
252.91 K | 269.29 J/K/mol
253.1 K | 269.76 J/K/mol
253.21 K | 269.44 J/K/mol
253.49 K | 254.99 J/K/mol
253.51 K | 272.53 J/K/mol
253.55 K | 268.86 J/K/mol
253.73 K | 255.6 J/K/mol
253.77 K | 270.41 J/K/mol
253.82 K | 269.46 J/K/mol
254.13 K | 270.51 J/K/mol
254.44 K | 270.78 J/K/mol
254.48 K | 271.06 J/K/mol
254.67 K | 267.86 J/K/mol
254.79 K | 270.11 J/K/mol
255.09 K | 270.86 J/K/mol
255.11 K | 269.99 J/K/mol
255.15 K | 266.89 J/K/mol
255.4 K | 268.06 J/K/mol
255.71 K | 269.24 J/K/mol
255.78 K | 268.39 J/K/mol
255.79 K | 265.69 J/K/mol
255.93 K | 257.4 J/K/mol
256.02 K | 270.78 J/K/mol
256.31 K | 256.81 J/K/mol
256.34 K | 267.49 J/K/mol
256.46 K | 267.76 J/K/mol
256.65 K | 267.31 J/K/mol
256.92 K | 265.79 J/K/mol
256.96 K | 267.59 J/K/mol
257.13 K | 266.91 J/K/mol
257.27 K | 266.51 J/K/mol
257.59 K | 266.84 J/K/mol
257.81 K | 266.84 J/K/mol
257.9 K | 267.19 J/K/mol
258.04 K | 266.69 J/K/mol
258.2 K | 258.77 J/K/mol
258.23 K | 266.29 J/K/mol
258.28 K | 269.36 J/K/mol
258.49 K | 266.59 J/K/mol
258.54 K | 266.91 J/K/mol
258.86 K | 266.27 J/K/mol
259.1 K | 259.75 J/K/mol
259.16 K | 267.91 J/K/mol and 267.81 J/K/mol
259.17 K | 266.56 J/K/mol
259.54 K | 267.76 J/K/mol
259.84 K | 267.96 J/K/mol
259.85 K | 268.01 J/K/mol
260 K | 260.1 J/K/mol
260.17 K | 268.06 J/K/mol
260.28 K | 269.14 J/K/mol
260.42 K | 260.6 J/K/mol
260.48 K | 269.74 J/K/mol
260.5 K | 268.36 J/K/mol
260.81 K | 268.66 J/K/mol
261.13 K | 268.81 J/K/mol
261.17 K | 270.24 J/K/mol
261.39 K | 272.21 J/K/mol
261.41 K | 270.41 J/K/mol
261.45 K | 269.31 J/K/mol
261.76 K | 270.09 J/K/mol
261.85 K | 271.36 J/K/mol
261.91 K | 260.82 J/K/mol
262.08 K | 270.58 J/K/mol
262.39 K | 270.73 J/K/mol
262.53 K | 272.18 J/K/mol and 271.23 J/K/mol
262.65 K | 262.42 J/K/mol
262.71 K | 270.93 J/K/mol
263.03 K | 271.38 J/K/mol
263.24 K | 272.33 J/K/mol
263.34 K | 272.38 J/K/mol
263.65 K | 274.08 J/K/mol
263.66 K | 273.13 J/K/mol
